*1 amine or outer side, *2 acyl side, *3 side chain or, on linkers, in order; H or OH if unused. Where a SMILES comes first, the peptide text is derived from it. Side-chain parts run from the residue outwards. [ ]: non-standard residue; d: D form. The star is where a group is joined. C18 diacid = O=C(O)CCCCCCCCCCCCCCCCC(=O)*; C16 diacid = O=C(O)CCCCCCCCCCCCCCC(=O)*; γGlu = O=C(O)[C@H](CCC(=O)[*:2])N[*:1]; C14 diacid = O=C(O)CCCCCCCCCCCCC(=O)*; NMeI = CC[C@H](C)[C@H](NC)C(=O)O; Api = NC1(C(=O)O)CCNCC1; Dap = NC[C@H](N)C(=O)O; AEEA = NCCOCCOCC(=O)O; Aib = CC(C)(N)C(=O)O; Propionyl = CCC(=O)*
Legend:
human CRF2a receptor = target: T1, human CRF2a receptor (Homo sapiens, UniProt Q13324); assay: Activity at human CRF2a receptor, cAMP functional assay in TeloHEAC cells; assay type: cell-based; settings: TeloHEAC cells stably expressing human CRF2a receptor, relative to urocortin 2 (100 nM = 100%)
T1 construct: expressed in transfected cells; host or cells: TeloHEAC cells
T1 sequence (Q13324 1-411): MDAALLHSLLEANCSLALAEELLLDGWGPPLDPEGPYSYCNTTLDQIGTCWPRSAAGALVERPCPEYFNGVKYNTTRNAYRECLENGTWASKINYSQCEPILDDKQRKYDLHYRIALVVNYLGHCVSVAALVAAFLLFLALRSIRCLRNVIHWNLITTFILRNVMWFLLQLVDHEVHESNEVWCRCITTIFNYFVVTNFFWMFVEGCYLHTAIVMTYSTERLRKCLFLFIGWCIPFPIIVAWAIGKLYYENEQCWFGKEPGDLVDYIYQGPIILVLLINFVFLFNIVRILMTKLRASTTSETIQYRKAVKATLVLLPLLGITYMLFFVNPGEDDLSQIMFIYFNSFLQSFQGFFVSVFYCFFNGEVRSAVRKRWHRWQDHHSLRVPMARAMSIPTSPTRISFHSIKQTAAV
Description: Agonism of compounds for human corticotropin-releasing factor 2a (CRF2a receptor) was determined by a functional assay measuring cAMP modulation upon treatment of TeloHEAC cells stably expressing human CRF2a receptor. Compounds were dissolved at 0.5 mM in 100% DMSO and serially diluted (1:2) in 100% DMSO for 16 dilutions. 20 nL of each dilution was then transferred to 384-well assay plate using an acoustic droplet ejection instrument. 5 μL of compound buffer (1×HBSS; 20 mM HEPES,) were then added to each well. Prior to use, frozen cells were thawed quickly at 37° C. and washed (5 min at 900 rpm) with 20 mL cell buffer (1×HBSS; 20 mM HEPES). Cells were resuspended in cell buffer added with 2 mM IBMX and adjusted to a cell density of […]. 5 μL cells (final dell density: 10000 cells/well) were dispensed in the compound-containing 384-well assay plate and incubated for 30 minutes 37° C. The cAMP level in treated cells was determined using the Cisbio 62AM4PEC kit according to manufacturer's instruction. Finally, plates were incubated for 1 h at room temperature before measuring the fluorescence ratio between 665/620 nm. The percent activity value (E %) was calculated by setting 100 nM of urocortin 2 (UCN2) as 100%. The in vitro potency of the compounds was quantified by determining the concentrations that caused 50% activation of maximal response (EC50) relative to urocortin 2.

CFR1R receptor = target: T2, CFR1R receptor (Homo sapiens, UniProt P34998); assay: Activity at anti-target CFR1R receptor, cAMP assay in CRF1R-overexpression CHO-K1 cells; assay type: cell-based; settings: 100% = Sauvagine at 100 nM; for EC50: cAMP
T2 construct: host or cells: CHO-K1 (clone 2)
T2 sequence (P34998 24-415): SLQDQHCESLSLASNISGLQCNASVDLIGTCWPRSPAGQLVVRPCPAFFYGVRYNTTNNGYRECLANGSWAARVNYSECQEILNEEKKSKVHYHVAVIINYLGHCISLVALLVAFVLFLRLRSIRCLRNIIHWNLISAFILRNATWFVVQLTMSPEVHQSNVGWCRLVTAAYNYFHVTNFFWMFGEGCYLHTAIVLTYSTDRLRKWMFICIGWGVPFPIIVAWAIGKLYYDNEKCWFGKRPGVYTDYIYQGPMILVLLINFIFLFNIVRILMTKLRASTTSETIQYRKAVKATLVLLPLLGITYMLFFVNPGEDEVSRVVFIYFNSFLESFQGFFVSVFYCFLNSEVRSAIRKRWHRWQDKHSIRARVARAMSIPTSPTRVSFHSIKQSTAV
How it was run: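 The method mirrors that used with TeloHAEC cells. Here, thawed clone 2 cells seeded at 4000 cells/well are tested, and 100 nM Sauvagine sets the top of the activation scale.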

| SMILES | EC50 (human CRF2a receptor) | Emax (% I) (CFR1R receptor) | EC50 (CFR1R receptor) |
| --- | --- | --- | --- |
| CC[C@H](C)[C@H](NC(C)=O)C(=O)N[C@H](C(=O)N[C@@H](CC(C)C)C(=O)N[C@@H](CO)C(=O)N[C@@H](CC(C)C)C(=O)N[C@@H](CC(=O)O)C(=O)N[C@@H](C(=O)N1CCC[C@H]1C(=O)N[C@H](C(=O)N[C@@H](CCCCN)C(=O)N[C@@H](CC(C)C)C(=O)N[C@@H](CCCCNC(=O)COCCOCCNC(=O)COCCOCCNC(=O)CC[C@H](NC(=O)CCCCCCCCCCCCCCCCC(=O)O)C(=O)O)C(=O)N[C@@H](CCCCN)C(=O)N[C@H](C(=O)N[C@@H](CC(C)C)C(=O)N[C@@H](CC(C)C)C(=O)N[C@@H](CCC(=O)O)C(=O)N[C@@H](CCC(N)=O)C(=O)N[C@@H](CCC(=O)O)C(=O)N[C@@H](CCCCN)C(=O)N[C@@H](CCC(N)=O)C(=O)N[C@@H](CCCCN)C(=O)N[C@@H](CCCCN)C(=O)N[C@@H](CCC(N)=O)C(=O)N[C@@H](CCCNC(=N)N)C(=O)N[C@@H](CCC(=O)O)C(=O)N[C@@H](CCC(N)=O)C(=O)N[C@@H](C)C(=O)N[C@@H](CCC(=O)O)C(=O)N[C@H](C(=O)N[C@@H](CC(N)=O)C(=O)N[C@@H](CN)C(=O)N[C@@H](CCC(N)=O)C(=O)N[C@H](C(=O)N[C@@H](CC(C)C)C(=O)N[C@@H](C)C(=O)N[C@@H](CCC(N)=O)C(=O)N[C@H](C(N)=O)C(C)C)[C@@H](C)CC)[C@@H](C)O)[C@@H](C)CC)[C@@H](C)CC)C(C)C)C(C)C [compound 107] (Ac-IVLSLD[dV]PIKLK([AEEA-AEEA-γGlu-C18 diacid])KILLEQEKQKKQREQAETN[Dap]QILAQV-NH2) | 1.43 nM | 0 % I | > 250 nM |
| CC[C@H](C)[C@H](NC)C(=O)N[C@H](C(=O)N[C@@H](CC(C)C)C(=O)N[C@@H](CO)C(=O)N[C@@H](CC(C)C)C(=O)N[C@@H](CC(=O)O)C(=O)N[C@@H](C(=O)N1CCC[C@H]1C(=O)N[C@H](C(=O)N[C@@H](CCCCN)C(=O)N[C@@H](CC(C)C)C(=O)N[C@@H](CCCCNC(=O)COCCOCCNC(=O)COCCOCCNC(=O)CC[C@H](NC(=O)CCCCCCCCCCCCCCCCC(=O)O)C(=O)O)C(=O)N[C@@H](CCCCN)C(=O)N[C@H](C(=O)N[C@@H](CC(C)C)C(=O)N[C@@H](CC(C)C)C(=O)N[C@@H](CCC(=O)O)C(=O)N[C@@H](CCC(N)=O)C(=O)N[C@@H](CCC(=O)O)C(=O)N[C@@H](CCCCN)C(=O)N[C@@H](CCC(N)=O)C(=O)N[C@@H](CCCCN)C(=O)NC(C)(C)C(=O)N[C@@H](CCC(N)=O)C(=O)N[C@@H](CCCNC(=N)N)C(=O)N[C@@H](CCC(=O)O)C(=O)N[C@@H](CCC(N)=O)C(=O)N[C@@H](C)C(=O)N[C@@H](CCC(=O)O)C(=O)N[C@H](C(=O)N[C@@H](CC(N)=O)C(=O)NC(C)(C)C(=O)N[C@@H](CCC(N)=O)C(=O)N[C@H](C(=O)N[C@@H](CC(C)C)C(=O)N[C@@H](C)C(=O)N[C@@H](CCC(N)=O)C(=O)N[C@H](C(N)=O)C(C)C)[C@@H](C)CC)[C@@H](C)O)[C@@H](C)CC)[C@@H](C)CC)C(C)C)C(C)C [compound 200] (H-[NMeI]VLSLD[dV]PIKLK([AEEA-AEEA-γGlu-C18 diacid])KILLEQEKQK[Aib]QREQAETN[Aib]QILAQV-NH2) | 0.71 nM | 2 % I | > 250 nM |
| CCC(=O)N[C@H](C(=O)N[C@@H](CC(C)C)C(=O)N[C@@H](CO)C(=O)N[C@@H](CC(C)C)C(=O)N[C@@H](CC(=O)O)C(=O)N[C@@H](C(=O)N1CCC[C@H]1C(=O)N[C@H](C(=O)N[C@@H](CCCCN)C(=O)N[C@@H](CC(C)C)C(=O)N[C@@H](CCCCNC(=O)CC[C@H](NC(=O)CCCCCCCCCCCCCCC(=O)O)C(=O)O)C(=O)N[C@@H](CCCCN)C(=O)N[C@H](C(=O)N[C@@H](CC(C)C)C(=O)N[C@@H](CC(C)C)C(=O)N[C@@H](CCC(=O)O)C(=O)N[C@@H](CCC(N)=O)C(=O)N[C@@H](CCC(=O)O)C(=O)N[C@@H](CCCCN)C(=O)N[C@@H](CCC(N)=O)C(=O)N[C@@H](CCCCN)C(=O)N[C@@H](CCCCN)C(=O)N[C@@H](CCC(N)=O)C(=O)N[C@@H](CCCNC(=N)N)C(=O)N[C@@H](CCC(=O)O)C(=O)N[C@@H](CCC(N)=O)C(=O)N[C@@H](C)C(=O)N[C@@H](CCC(=O)O)C(=O)N[C@H](C(=O)N[C@@H](CC(N)=O)C(=O)NC(C)(C)C(=O)N[C@@H](CCC(N)=O)C(=O)N[C@H](C(=O)N[C@@H](CC(C)C)C(=O)N[C@@H](C)C(=O)N[C@@H](CCC(N)=O)C(=O)N[C@H](C(N)=O)C(C)C)[C@@H](C)CC)[C@@H](C)O)[C@@H](C)CC)[C@@H](C)CC)C(C)C)C(C)C [compound 78] (Propionyl-VLSLD[dV]PIKLK([γGlu-C16 diacid])KILLEQEKQKKQREQAETN[Aib]QILAQV-NH2) | 0.73 nM | 7 % I | > 250 nM |
| CC[C@H](C)[C@H](NC)C(=O)N[C@H](C(=O)N[C@@H](CC(C)C)C(=O)N[C@@H](CO)C(=O)N[C@@H](CC(C)C)C(=O)N[C@@H](CC(=O)O)C(=O)N[C@@H](C(=O)N1CCC[C@H]1C(=O)N[C@H](C(=O)N[C@@H](CCCCN)C(=O)N[C@@H](CC(C)C)C(=O)N[C@@H](CCCCNC(=O)CC[C@H](NC(=O)CCCCCCCCCCCCCCCCC(=O)O)C(=O)O)C(=O)N[C@@H](CCCCN)C(=O)N[C@H](C(=O)N[C@@H](CC(C)C)C(=O)N[C@@H](CC(C)C)C(=O)N[C@@H](CCC(=O)O)C(=O)N[C@@H](CCC(N)=O)C(=O)N[C@@H](CCC(=O)O)C(=O)N[C@@H](CCCCN)C(=O)N[C@@H](CCC(N)=O)C(=O)N[C@@H](CCCCN)C(=O)N[C@@H](CCCCN)C(=O)N[C@@H](CCC(N)=O)C(=O)N[C@@H](CCCNC(=N)N)C(=O)N[C@@H](CCC(=O)O)C(=O)N[C@@H](CCC(N)=O)C(=O)N[C@@H](C)C(=O)N[C@@H](CCC(=O)O)C(=O)N[C@H](C(=O)N[C@@H](CC(N)=O)C(=O)N[C@@H](C)C(=O)N[C@@H](CCC(N)=O)C(=O)N[C@H](C(=O)N[C@@H](CC(C)C)C(=O)N[C@@H](C)C(=O)N[C@@H](CCC(N)=O)C(=O)N[C@H](C(N)=O)C(C)C)[C@@H](C)CC)[C@@H](C)O)[C@@H](C)CC)[C@@H](C)CC)C(C)C)C(C)C [compound 138] (H-[NMeI]VLSLD[dV]PIKLK([γGlu-C18 diacid])KILLEQEKQKKQREQAETNAQILAQV-NH2) | 0.05 nM | 10 % I | > 250 nM |
| CC[C@H](C)[C@H](NC(C)=O)C(=O)N[C@H](C(=O)N[C@@H](CC(C)C)C(=O)N[C@@H](CO)C(=O)N[C@@H](CC(C)C)C(=O)N[C@@H](CC(=O)O)C(=O)N[C@@H](C(=O)N1CCC[C@H]1C(=O)N[C@H](C(=O)N[C@@H](CCCCN)C(=O)N[C@@H](CC(C)C)C(=O)N[C@@H](CCCCNC(=O)CC[C@H](NC(=O)CCCCCCCCCCCCC(=O)O)C(=O)O)C(=O)N[C@@H](CCCCN)C(=O)N[C@H](C(=O)N[C@@H](CC(C)C)C(=O)N[C@@H](CC(C)C)C(=O)N[C@@H](CCC(=O)O)C(=O)N[C@@H](CCC(N)=O)C(=O)N[C@@H](CCC(=O)O)C(=O)N[C@@H](CCCCN)C(=O)N[C@@H](CCC(N)=O)C(=O)N[C@@H](CCCCN)C(=O)NC(C)(C)C(=O)N[C@@H](CCC(N)=O)C(=O)N[C@@H](CCCNC(=N)N)C(=O)N[C@@H](CCC(=O)O)C(=O)N[C@@H](CCC(N)=O)C(=O)N[C@@H](C)C(=O)N[C@@H](CCC(=O)O)C(=O)N[C@H](C(=O)N[C@@H](CC(N)=O)C(=O)NC1(C(=O)N[C@@H](CCC(N)=O)C(=O)N[C@H](C(=O)N[C@@H](CC(C)C)C(=O)N[C@@H](C)C(=O)N[C@@H](CCC(N)=O)C(=O)N[C@H](C(N)=O)C(C)C)[C@@H](C)CC)CCNCC1)[C@@H](C)O)[C@@H](C)CC)[C@@H](C)CC)C(C)C)C(C)C [compound 170] (Ac-IVLSLD[dV]PIKLK([γGlu-C14 diacid])KILLEQEKQK[Aib]QREQAETN[Api]QILAQV-NH2) | 1.28 nM | 5 % I | > 250 nM |
